From publication PMC10847579, “Recording ten-fold larger IKr conductances with automated patch clamping using equimolar Cs^+ solutions” (Frontiers in Physiology, 2024)

Assays:
[1] = target: T1, hERG channel (Homo sapiens, UniProt Q12809); experiment: Automated patch clamp (Nanion Patchliner) of hERG current in CHO-hERG cells with K+ solutions; assay type: cell-based
T1 construct: host or cells: CHO cre/lox hERG
Procedure: (§1) A cell passage was performed twice a week and kept under 20 passages for optimal cell quality. […] Thereafter, the cells were resuspended in 1.7 mL external K^+ solution.
(§2) After sample preparation, experiments on CHO cells were performed at 22°C on the Nanion® Patchliner system (Nanion Technologies, Munich, Germany) with a EPC-10 Quadro Amplifier (HEKA, Reutlingen, Germany) controlled by Patchmaster 2.90.5. Recordings were performed using membrane capacitance and series resistance compensation (70%). The chip (NPC-16 medium resistance, Nanion Technologies) was filled with either the K^+ or Cs^+ internal and external solution with a resistance between 2 and 4 MOhm. Thereafter, the cells were added to the chip. After the capture of a cell, the seal enhancer solution was added, obtaining a Rseal of at least 200 MOhm. Next, the chip was flushed with an external solution. During the experiment, four cells were measured simultaneously in separate chambers of the chip.
(§3) For all experiments, the drugs were incubated for 60 s before measuring and an activation pulse of +20 mV and −80 mV both for 500 m was given to open the channel and achieve the steady-state ion channel–drug interaction.
For Cs^+-based experiments, the cells were depolarized from a holding potential of −80 mV in 10-mV increments between −70 mV and +40 mV for 3 s. Thereafter, the cell was clamped back to −80 mV for 2 s, followed by a hyperpolarization step to −100 mV for 50 ms before returning to −80 mV. In K^+-based experiments, the cells were clamped at a holding potential of −80 mV before a hyperpolarizing step to −120 mV for 10 ms and returned to −80 mV for 50 ms before cells were depolarized from −60 mV to 60 mV in 10-mV increments for 1 s. Thereafter, the cells were clamped back to −50 mV for 500 ms and finally returned to −80 mV. The interval between sweeps was 10 s for both protocols.
For the stock solutions, the drugs were dissolved in ddH2O and for the working solution diluted in either the K^+ or Cs^+ external solution. The different concentrations per compound were sequentially tested on the same cell.
For all measured currents, the current densities (pA/pF) were determined by normalizing for the membrane capacitance. The current densities were converted to conductance densities (pS/pF) using reversal potentials calculated using the Nernst equation for the solution and temperature used.
Dose–response curves were made with the tail current values at 40 mV, which were the largest current densities.
All averages are expressed as mean ± SEM for the (maximal) conductance values and IC50 values. To determine the amount of block, a two-way ANOVA with Dunnett’s test was performed with the maximal conductance values. […]

[2] = target: T1, hERG channel; experiment: Automated patch clamp (Nanion Patchliner) of hERG current in CHO-hERG cells with equimolar Cs+ solutions; assay type: cell-based
Procedure: as §1, §2, §3
For Cs^+-based experiments, the cells were depolarized from a holding potential of −80 mV in 10-mV increments between −70 mV and +40 mV for 3 s. Thereafter, the cell was clamped back to −80 mV for 2 s, followed by a hyperpolarization step to −100 mV for 50 ms before returning to −80 mV. In K^+-based experiments, the cells were clamped at a holding potential of −80 mV before a hyperpolarizing step to −120 mV for 10 ms and returned to −80 mV for 50 ms before cells were depolarized from −60 mV to 60 mV in 10-mV increments for 1 s. […]
For all measured currents, the current densities (pA/pF) were determined by normalizing for the membrane capacitance. The current densities were converted to conductance densities (pS/pF) using reversal potentials calculated using the Nernst equation for the solution and temperature used. […]
All averages are expressed as mean ± SEM for the (maximal) conductance values and IC50 values. […]

T1 sequence (Q12809 whole entry): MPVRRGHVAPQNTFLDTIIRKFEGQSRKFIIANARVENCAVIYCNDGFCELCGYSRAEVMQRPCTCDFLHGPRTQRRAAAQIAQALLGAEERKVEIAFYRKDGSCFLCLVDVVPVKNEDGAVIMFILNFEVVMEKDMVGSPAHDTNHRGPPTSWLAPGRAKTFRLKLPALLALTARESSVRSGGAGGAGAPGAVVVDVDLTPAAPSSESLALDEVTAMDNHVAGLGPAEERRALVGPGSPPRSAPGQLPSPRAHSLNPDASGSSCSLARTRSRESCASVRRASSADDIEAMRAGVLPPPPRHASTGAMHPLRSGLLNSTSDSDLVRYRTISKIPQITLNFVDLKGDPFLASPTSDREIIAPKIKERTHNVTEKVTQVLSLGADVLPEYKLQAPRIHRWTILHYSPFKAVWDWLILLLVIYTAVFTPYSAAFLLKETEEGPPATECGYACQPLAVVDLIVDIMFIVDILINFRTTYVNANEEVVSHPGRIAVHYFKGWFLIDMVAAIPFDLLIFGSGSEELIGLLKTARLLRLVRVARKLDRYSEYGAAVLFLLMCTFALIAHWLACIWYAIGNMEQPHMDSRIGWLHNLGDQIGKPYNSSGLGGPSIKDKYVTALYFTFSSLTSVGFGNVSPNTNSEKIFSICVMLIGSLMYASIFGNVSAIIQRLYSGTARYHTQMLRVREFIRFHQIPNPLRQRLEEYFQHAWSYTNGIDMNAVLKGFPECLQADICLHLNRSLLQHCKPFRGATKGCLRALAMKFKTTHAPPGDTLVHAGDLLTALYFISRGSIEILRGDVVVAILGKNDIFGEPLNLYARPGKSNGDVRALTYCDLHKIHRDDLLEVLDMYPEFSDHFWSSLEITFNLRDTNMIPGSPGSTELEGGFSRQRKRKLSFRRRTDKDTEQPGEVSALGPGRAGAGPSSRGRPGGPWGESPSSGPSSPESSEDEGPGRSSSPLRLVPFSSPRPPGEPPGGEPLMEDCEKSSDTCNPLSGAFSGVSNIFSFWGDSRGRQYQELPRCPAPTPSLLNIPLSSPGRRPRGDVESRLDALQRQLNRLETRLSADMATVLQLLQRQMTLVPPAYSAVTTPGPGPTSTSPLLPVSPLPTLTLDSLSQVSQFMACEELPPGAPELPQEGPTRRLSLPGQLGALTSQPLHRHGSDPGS

## CNCCCN1c2ccccc2CCc2ccccc21 [Desipramine]
[1]; K+ solutions, 1 µM
  effect on K+ step conductance: almost completely inhibited
[1]; K+ solutions, 100 and 1,000 µM
  effect on K+ tail conductance: completely blocked
[1]; K+ solutions, tail current at +40 mV
  Hill coef.: −1.4
[1]; comparison of the drugs, Figure 1 (K+ and Cs+ solutions)
  strength of hERG current inhibition: modest inhibition
[2]; 100 µM (highest)
  effect on Cs+ step conductance: slightly decreased
  effect on Cs+ tail conductance: strong decrease but not a complete block
[2]; tail current at +40 mV
  Hill coef.: −1.4
